From patent publication US5747521A (priority 1992, dated 1998)
Read-outs that look alike come from different tables or passages of the source.

Tests used:
in vivo [1] = conditions: mouse
[2] = system: carrageenan induced hind-paw edema; experiment: Anti-inflammatory activity test (carrageenan induced hind-paw edema method, Winter); assay type: in vivo, male rats; conditions: for A rate of inhibition: 100 mg/kg p.o., 1% carrageenan one hour after dosing, edema measured 3 hours and 5 hours thereafter, significance (p.v.) 0.01; for edema inhibition effect / anti-inflammatory action: conclusion in words from Table 2
Protocol: The volume of legs was measured before a solution of a drug was administered to a group of 8 mature male rats (weight 170±20 g) and 0.1 ml /rat of 1% carrageenan physiological saline solution was injected subcutaneously into the sole of hind of leg of rats one hour after the oral administration and edema thereby caused was measured 3 hours and 5 hours thereafter. In this way, a rate of edema formation and a rate of inhibition were calculated.

[3] = system: number of stretchings (anti-writhing); experiment: Analgesic activity test (anti-writhing method by Whittle); assay type: in vivo, male ICR-mice; conditions: for ED50: Mus musculus, 1 h, read-out: ED50 Oral administration; for analgesic activity / analgesic action: conclusion in words from Table 3
Protocol: After the lapse of 60 minutes, the number of stretchings in the course of 10 minutes was measured as an index to a algesic sense.

in vivo [4] = experiment: in vivo; parameters: species or system male SD-rats; conditions: rat, po
Protocol: A solution of a drug was administered through the mouths of a group of 8 mature male SD-rats (weight 130±20 g) performing a fast for 24 hours. […] Capacity which causes 50% bleeding (UD50) was calculated according to the Ritchfield and Wilcoxon method (J. Pahrmacol., 69, 99, 1949) with bleeding more than 1 mm in diameter as positivity.

[5] = ip, read-out: LD50 Abdominal administration
[6] = oral, single dose, fasted mice, mortality up to 72 hours, read-out: LD50 Oral administration
[7] = oral, stretchings counted in 10 minutes, 60 minutes after dosing

| SMILES | LD50 at 72 h (in vivo [1]; [5]) | LD50 at 72 h (in vivo [1]; [6]) | A rate of inhibition [2] | edema inhibition effect / anti-inflammatory action [2] | ED50 [3, 7] | analgesic activity / analgesic action [3] | TD50 at 4 h (in vivo [4]) | ED50 ([3]; po) | LD50 at 72 h (in vivo [1]; ip, into the abdominal cavity, single dose, fasted mice, mortality up to 72 hours, read-out: LD50 Abdominal administration) |
| --- | --- | --- | --- | --- | --- | --- | --- | --- | --- |
| COc1ccc2c(c1)c(CC(=O)OCC1CCCCO1)c(C)n2C(=O)C=Cc1ccccc1 (stereo not shown) [Compound 3, 0-(2-tetrahydropyranilmethyl)-N-cinnamoyl-5-methoxy-2methyl-3-indoleacetate] | 1150 mg/kg | 6000 mg/kg | 43% | significant anti-inflammatory action | 95 mg/kg | significant analgesic action | 230 mg/kg |  |  |
| COc1ccc2c(c1)c(CC(=O)OCC=CCO)c(C)n2C(=O)C=Cc1ccccc1 [Compound 1, 0-(4-hydroxy-2-butene)-N-cinnamoyl-5-methoxy-2-methyl-3-indoleacetate] | 520 mg/kg | 2000 mg/kg | 57% | almost similar to the widely known cinmetacin | 70 mg/kg | significant analgesic action | 100 mg/kg |  |  |
| COc1ccc2c(c1)c(CC(=O)O)c(C)n2C(=O)C=Cc1ccccc1 [Cinmetacin, N-cinnamoyl-2-methyl-5-methoxy-3-indoleacetic acid, reference compound] |  |  | 65% |  |  |  | 18 mg/kg | 36 mg/kg |  |
| CC1=C(CC(=O)O)c2cc(F)ccc2/C1=C\c1ccc([S+](C)[O-])cc1 (stereo not shown) [Sulindac, reference compound] |  | 980 mg/kg |  |  |  |  | 14 mg/kg | 60 mg/kg | 235 mg/kg |
| COc1ccc2c(c1)c(CC(=O)OC(C)C(C)O)c(C)n2C(=O)C=Cc1ccccc1 (stereo not shown) [Compound 2, 0-(3-hydroxy-2-buthanyl)-cinnamoyl-5-methoxy-2-methyl-3-indoleacetate] | 570 mg/kg | 4200 mg/kg | 52% | almost similar to the widely known cinmetacin | 31 mg/kg | analgesic activity equal to cinmetacin | 175 mg/kg |  |  |
